Consider 20 compounds from PubChem BioAssay AID224 (DTP/NCI, 2004).

Where “and” joins values, the source holds several entries; their conditions need not be identical. Equal entries are not always repeated. Toxic doses and inconclusive results are not listed.

The test deals with P335 leukemia ip, BDF1 mice, survival T/C %. Briefly: NCI In Vivo Anticancer Drug Screen. Data for tumor model P335 Leukemia (intraperitoneal) in B6D2F1 (BDF1) mice. Particulars: endpoint: mean survival time, higher = longer survival. The protocol:
The antitumor activity of compounds was measured in mice bearing transplantable tumors. Survival or tumor size were measured and the results are expressed as the measurement made in the treated group (T) divided by the measurement made in the vehicle treated control group (C). The tumor model used in this assay is P335 Leukemia (intraperitoneal) in B6D2F1 (BDF1) mice

The mark [1] stands for this setting: dose: 0.63 mg/kg/injection, schedule: Q01DX Z (ip), vehicle: carboxymethylcellulose (CMC).
[2] abbreviates: dose: 25.0 mg/kg/injection, schedule: Q01DX Z (ip), vehicle: carboxymethylcellulose (CMC).
[3] abbreviates: dose: 50.0 mg/kg/injection, schedule: Q01DX Z (ip), vehicle: carboxymethylcellulose (CMC).
Setting [4] is: dose: 100.0 mg/kg/injection, schedule: Q01DX Z (ip), vehicle: carboxymethylcellulose (CMC).
The mark [5] stands for this setting: dose: 500.0 mg/kg/injection, schedule: Q01DX Z (ip), vehicle: carboxymethylcellulose (CMC).
The mark [6] stands for this setting: dose: 1000.0 mg/kg/injection, schedule: Q01DX Z (ip), vehicle: carboxymethylcellulose (CMC).
Setting [7] is: dose: 18.75 mg/kg/injection, schedule: Q01DX Z (ip), vehicle: carboxymethylcellulose (CMC).
[8] abbreviates: dose: 37.5 mg/kg/injection, schedule: Q01DX Z (ip), vehicle: carboxymethylcellulose (CMC).
Where [9] appears, read: dose: 75.0 mg/kg/injection, schedule: Q01DX Z (ip), vehicle: carboxymethylcellulose (CMC).
Setting [10] is: dose: 150.0 mg/kg/injection, schedule: Q01DX Z (ip), vehicle: carboxymethylcellulose (CMC).
Setting [11] is: dose: 300.0 mg/kg/injection, schedule: Q01DX Z (ip), vehicle: carboxymethylcellulose (CMC).
Setting [12] is: dose: 0.12 mg/kg/injection, schedule: Q01DX Z (ip), vehicle: carboxymethylcellulose (CMC).
Setting [13] is: dose: 12.5 mg/kg/injection, schedule: Q01DX Z (ip), vehicle: carboxymethylcellulose (CMC).
The mark [14] stands for this setting: dose: 3.75 mg/kg/injection, schedule: Q01DX Z (ip), vehicle: carboxymethylcellulose (CMC).
Setting [15] is: dose: 5.0 mg/kg/injection, schedule: Q01DX Z (ip), vehicle: carboxymethylcellulose (CMC).

As to `Nc1nc(=S)c2ncn(C3OC(CO)C(O)C3O)c2[nH]1` (stereo unspecified), the T/C runs as follows: (dose: 0.16 mg/kg/injection, schedule: Q01DX Z (ip), vehicle: carboxymethylcellulose (CMC)) 93 % of control; (dose: 0.31 mg/kg/injection, schedule: Q01DX Z (ip), vehicle: carboxymethylcellulose (CMC)) 117 % of control; under setting [1], 90 % of control; (dose: 1.25 mg/kg/injection, schedule: Q01DX Z (ip), vehicle: carboxymethylcellulose (CMC)) 90 % of control.

Turning to `C[C@@H]1C[C@H]2CC[C@H](O2)[C@H](C)C(=O)O[C@@H](C)C[C@@H]2CC[C@@H](O2)[C@@H](C)C(=O)O[C@H](C)C[C@H]2CC[C@H](O2)[C@H](C)C(=O)O[C@@H](C)C[C@@H]2CC[C@@H](O2)[C@@H](C)C(=O)O1`, the T/C runs as follows: under setting [2], 96 % of control; under setting [3], 88 % of control; under setting [4], 86 % of control.

With `O=CN(O)CC(=O)O`, the T/C is, setting by setting: (dose: 125.0 mg/kg/injection, schedule: Q01DX Z (ip), vehicle: none) 87 % of control; (dose: 250.0 mg/kg/injection, schedule: Q01DX Z (ip), vehicle: none) 95 % of control; under setting [5], 109 % of control; (dose: 500.0 mg/kg/injection, schedule: Q01DX Z (ip), vehicle: none) 89 % of control; under setting [6], 93 % of control.

With `Nc1nc2n[nH]nc2c(=O)[nH]1`, the T/C (dose: 100.0 mg/kg/injection, schedule: Q01DX Z (ip), vehicle: other) was 115 % of control.

As for `CC(=O)[C@H]1CC[C@H]2[C@@H]3C[C@H](C)C4=CC(=O)CC[C@]4(C)[C@H]3C(=O)C[C@]12C`, the T/C (dose: 12.5 mg/kg/injection, schedule: Q01DX Z (sc), vehicle: steriod suspending solution) was 120 % of control; the T/C (dose: 25.0 mg/kg/injection, schedule: Q01DX Z (sc), vehicle: steriod suspending solution) is 115 % of control; the T/C (dose: 50.0 mg/kg/injection, schedule: Q01DX Z (sc), vehicle: steriod suspending solution) is 119 % of control and 124 % of control; the T/C (dose: 100.0 mg/kg/injection, schedule: Q01DX Z (sc), vehicle: steriod suspending solution) was 107 % of control; the T/C (dose: 200.0 mg/kg/injection, schedule: Q01DX Z (sc), vehicle: steriod suspending solution) is 100 % of control; the T/C (dose: 400.0 mg/kg/injection, schedule: Q01DX Z (sc), vehicle: steriod suspending solution) was 88 % of control.

On to `COc1ccc(/C=N/NC(N)=S)cc1`, for which the T/C is, setting by setting: under setting [7], 115 % of control; under setting [8], 108 % of control; under setting [9], 106 % of control; under setting [10], 96 % of control; under setting [11], 115 % of control; (dose: 300.0 mg/kg/injection, schedule: Q01DX Z (ip), vehicle: saline) 94 % of control. Also, the T/C (dose: 600.0 mg/kg/injection, schedule: Q01DX Z (ip), vehicle: saline) is 96 % of control.

For the compound `NC(=O)N(CCCl)N=O`, the T/C is 94 % of control under setting [12]; 114 % of control (dose: 0.25 mg/kg/injection, schedule: Q01DX Z (ip), vehicle: carboxymethylcellulose (CMC)); 110 % of control (dose: 1.0 mg/kg/injection, schedule: Q01DX Z (ip), vehicle: carboxymethylcellulose (CMC)).

Take `Cc1cc(N(CCCl)CCCl)ccc1N=Nc1ccccc1C(=O)O`: the T/C is, setting by setting: under setting [12], 90 % of control; (dose: 0.23 mg/kg/injection, schedule: Q01DX Z (ip), vehicle: carboxymethylcellulose (CMC)) 106 % of control; (dose: 0.47 mg/kg/injection, schedule: Q01DX Z (ip), vehicle: carboxymethylcellulose (CMC)) 106 % of control; (dose: 0.94 mg/kg/injection, schedule: Q01DX Z (ip), vehicle: carboxymethylcellulose (CMC)) 94 % of control.

`S=P(N1CC1)(N1CC1)N1CC1`: the T/C is 107 % of control (dose: 0.37 mg/kg/injection, schedule: Q01DX Z (ip), vehicle: saline); 109 % of control (dose: 0.75 mg/kg/injection, schedule: Q01DX Z (ip), vehicle: saline); 104 % of control (dose: 1.5 mg/kg/injection, schedule: Q01DX Z (ip), vehicle: saline); 112 % of control (dose: 3.0 mg/kg/injection, schedule: Q01DX Z (ip), vehicle: saline).

As for `CSc1ncnc2nc[nH]c12`, the T/C is 96 % of control under setting [13]; 90 % of control under setting [3]; 87 % of control (dose: 50.0 mg/kg/injection, schedule: Q01DX Z (ip), vehicle: methylcellulose (MC)).

For `C[C@H]1C(=O)O[C@@H]2CCN3CC=C(COC(=O)[C@](C)(O)[C@@]1(C)O)[C@H]23`, the T/C reads like this: under setting [14], 87 % of control; (dose: 7.5 mg/kg/injection, schedule: Q01DX Z (ip), vehicle: carboxymethylcellulose (CMC)) 94 % of control; (dose: 15.0 mg/kg/injection, schedule: Q01DX Z (ip), vehicle: carboxymethylcellulose (CMC)) 91 % of control and 93 % of control; (dose: 30.0 mg/kg/injection, schedule: Q01DX Z (ip), vehicle: carboxymethylcellulose (CMC)) 96 % of control.

Take `CN(C)c1ccc(Nc2c3ccccc3nc3ccccc23)cc1`: the T/C by setting is: (dose: 1.6 mg/kg/injection, schedule: Q01DX Z (ip), vehicle: carboxymethylcellulose (CMC)) 112 % of control; (dose: 3.1 mg/kg/injection, schedule: Q01DX Z (ip), vehicle: carboxymethylcellulose (CMC)) 93 % of control; (dose: 6.2 mg/kg/injection, schedule: Q01DX Z (ip), vehicle: carboxymethylcellulose (CMC)) 96 % of control; under setting [13], 117 % of control.

Take `O=c1[nH]c(=O)n(C2CC(O)C(CO)O2)cc1F` (stereo unspecified): the T/C runs as follows: under setting [2], 111 % of control; under setting [3], 104 % of control; under setting [4], 111 % of control; (dose: 200.0 mg/kg/injection, schedule: Q01DX Z (ip), vehicle: carboxymethylcellulose (CMC)) 114 % of control; (dose: 400.0 mg/kg/injection, schedule: Q01DX Z (ip), vehicle: carboxymethylcellulose (CMC)) 87 % of control; (dose: 800.0 mg/kg/injection, schedule: Q01DX Z (ip), vehicle: carboxymethylcellulose (CMC)) 86 % of control.

As to `S=c1nc[nH]c2nc[nH]c12`, the T/C runs as follows: (dose: 37.5 mg/kg/injection, schedule: Q01DX Z (ip), vehicle: other) 116 % of control; (dose: 75.0 mg/kg/injection, schedule: Q01DX Z (ip), vehicle: other) 114 % of control; (dose: 300.0 mg/kg/injection, schedule: Q01DX Z (ip), vehicle: other) 122 % of control.

As for `[I][Hg][CH2]C1COC([CH2][Hg][I])CO1` (stereo unspecified), the T/C under setting [14] is 110 % of control.

Turning to `NC(Cc1ccc(N(CCCl)CCCl)cc1)C(=O)O` (stereo unspecified), the T/C (dose: 2.5 mg/kg/injection, schedule: Q01DX Z (ip), vehicle: carboxymethylcellulose (CMC)) was 87 % of control and the T/C under setting [15] was 94 % of control.

Turning to `O=c1cn[nH]c(=O)[nH]1`, the T/C reads like this: (dose: 187.5 mg/kg/injection, schedule: Q01DX Z (ip), vehicle: carboxymethylcellulose (CMC)) 88 % of control; (dose: 375.0 mg/kg/injection, schedule: Q01DX Z (ip), vehicle: carboxymethylcellulose (CMC)) 88 % of control; (dose: 750.0 mg/kg/injection, schedule: Q01DX Z (ip), vehicle: carboxymethylcellulose (CMC)) 98 % of control.

In the case of `CN(C)c1nc(N(C)C)nc(N(C)C)n1`, the T/C (dose: 31.25 mg/kg/injection, schedule: Q01DX Z (ip), vehicle: carboxymethylcellulose (CMC)) is 113 % of control; the T/C (dose: 62.5 mg/kg/injection, schedule: Q01DX Z (ip), vehicle: carboxymethylcellulose (CMC)) is 111 % of control; the T/C (dose: 125.0 mg/kg/injection, schedule: Q01DX Z (ip), vehicle: carboxymethylcellulose (CMC)) is 113 % of control; the T/C under setting [5] is 111 % of control; the T/C under setting [6] was 93 % of control.

As for `O=C1CCC(N2C(=O)c3ccccc3C2=O)C(=O)N1` (stereo unspecified), the T/C is 92 % of control (dose: 9.4 mg/kg/injection, schedule: Q01DX Z (ip), vehicle: carboxymethylcellulose (CMC)); 86 % of control and 97 % of control under setting [7]; 88 % of control and 90 % of control and 119 % of control under setting [8]; 100 % of control and 102 % of control under setting [9]; 88 % of control and 98 % of control under setting [10]; 86 % of control under setting [11].

On to `COC12C(COC(N)=O)C3=C(C(=O)C(C)=C(N)C3=O)N1CC1C2N1C` (stereo unspecified), for which the T/C under setting [1] is 110 % of control; the T/C under setting [15] is 160 % of control and 168 % of control.
